One assay deals with TNF-α. Nature of the assay: Whole bovine blood assay, LPS-induced TNF-α. It counts as cell-based. As to conditions: fresh whole bovine blood, LPS stimulant. The method in brief:
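Fresh heparinized bovine whole blood was preincubated with compound 4 h at 37 °C, then stimulated with LPS (final 1 μg/mL) for 18 h at 37 °C. Plasma TNF-α was quantified by MSD U-Plex chemiluminescent immunoassay, normalized to total protein (BCA), and IC50 taken for LPS-induced TNF-α inhibition.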

Another assay deals with IL-1β. Description: Whole bovine blood assay, LPS-induced IL-1β (inhibition / overstimulation). It counts as cell-based. As to conditions: drug concentration giving overstimulation (OS) of LPS-induced IL-1β. The method in brief: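 IL-1β was quantified by MSD U-Plex chemiluminescence in plasma and normalized to BCA total protein. Bovine blood was pretreated 4 h at 37 °C with compound dilutions before 18 h LPS challenge (1 μg/mL final). Rising IL-1β at high concentrations was recorded as overstimulation.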

Another assay has as its system P. multocida 46572. Description: In vivo mouse lung infection challenge model (murine efficacy), survival. Set-up: species or system CD-1 female mice. The conditions noted are these: P. multocida 46572 intranasal challenge; 20 mg/kg subcutaneous; harmonized relative to vehicle (−) and M9 (+) controls. The procedure: The challenge organism was P. multocida 46572. Target challenge concentration was 5×10^2 CFU/mouse. Isolated colonies from overnight growth (37° C. with 5% CO2) on trypticase soy agar (TSA II) blood plates were transferred to room temperature Brain Heart Infusion Broth (BHIB). The broth culture was incubated 3.5-4 hours to approximately mid-log phase of growth, as measured by forward light scatter at 600 nm (OD600, 0.200). The culture was centrifuged to collect the bacterial pellet. The pellet was re-suspended in BHIB and adjusted to provide an approximate concentration of 2.7 log 10 colony forming units (CFU) in 0.04 mL at the highest concentration. The challenge inoculum concentration was confirmed by serial dilutions of the inoculum for CFU enumeration. On Day −5, CD −1 female mice were received. Mice were given standard rodent diet and water ad libitum. On Day 0, bacterial inoculum (0.04 mL) was administered to each mouse (n=36) intranasally. Compounds of the invention were dosed at 20 mg/kg (0.1 mL) in a buffered (˜pH 5.4) propylene glycol, monothioglycerol and water solution by subcutaneous injection. Animals were observed from Days 1-10. The study was terminated on Day 10. In addition, some treatment groups were sampled at 6, 24, and 48 hours post bacterial challenge for RNA sequence analysis of lung tissue.
The murine efficacy model (P.multocida challenge) was optimized, and the treatment group size was powered to be able to observe statistically significant improvement of survival to expected ranges for immunomodulatory compounds. The experimental design was a randomized complete block design. Mice were individually identified and treatment groups comingled within a cage, with every treatment group equally represented across cages. Mortality was the primary variable. Mortality data was analyzed using a generalized mixed model with fixed effect of treatment and random effect of block. Survival time was also analyzed using the SAS PHREG (survival analysis) procedure to examine whether there were significant differences between treatment groups and the control group. Numerous compounds of the invention and M9 (positive control) were tested in this model at a dose of 20 mg/kg (Table 3). Typical percent survival for no treatment control is in the range of 0-20% based on study to study variation in challenge inoculum and rate of infection. […] Mouse survival for M9 was about 90-100%, further supporting its residual antibacterial properties against the bacterial strain.

The test system of another assay is IL-6. Nature of the assay: Whole bovine blood assay, LPS-induced IL-6. The assay is classed as cell-based. The conditions noted are these: fresh whole bovine blood, LPS stimulant, top drug concentration 250 μM.
In assay [1] the test system is BRD pathogens, M. haemolytica and P. multocida. Description: MIC screening panel, BRD pathogens (CLSI broth micro-dilution). It counts as cell-based. As to conditions: Table C; at least one BRD pathogenic strain; top concentration 64 μg/mL. The method in brief: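 MICs were determined by CLSI broth micro-dilution in cation-adjusted Mueller Hinton Broth at about 5×10^5 CFU/mL, with QC strains included. Incubation was 18-22 h at 35-37° C. in air, 5% CO2 or anaerobically (up to 48 h) depending on strain. BRD pathogens were first tested at a top concentration of 64 μg/mL in an eleven-point dilution series.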
Background: In broth dilution the organism is exposed to a series of concentrations in liquid medium.

The mark [2] stands for this setting: Bos taurus, top drug concentration 250 μM.
The mark [3] stands for this setting: Bos taurus, 18 h, top concentration 250 μM.
The mark [4] stands for this setting: Bos taurus, dose of 500 μM (footnote ^).
Where [5] appears, read: Bos taurus, 18 h, dose of 500 μM (footnote ^).

One may read the IC50 as the concentration that inhibits the measured activity by half. Usually minimal effective concentration stands for the lowest level tested that produced the effect sought.

Marks after values point to notes of the source that are not given here.

As to `CC[C@H]1OC(=O)[C@H](C)[C@@H](O)[C@H](C)[C@@H](O[C@@H]2O[C@H](C)C[C@H](N(C)S(=O)(=O)c3ccccc3)[C@H]2Oc2ccccc2)[C@](C)(O)C[C@@H](C)CN(C)[C@H](C)[C@@H](O)[C@]1(C)O` [Example A-3, N-((2S,3R,4S,6R)-2-(((2R,3S,4R,5R,8R,10R,11R,12S,13S,14R)-2-ethyl-3,4, 10,13-tetrahydroxy-3,5,6,8,10, 12,14-heptamethyl-15-oxo-1-oxa-6-azacyclopentadecan-11-yl)oxy)-6-methyl-3-phenoxytetrahydro-2H-pyran-4-yl)-N-methylbenzenesulfonamide], the IC50 in the assay with TNF-α (setting [2]) came out at 23 µM; with IL-6 (Bos taurus), 43 µM. Also, the minimal effective concentration in the assay on IL-1β (setting [3]) turned out to be 14 µM. The “% Survival” value in the assay on P. multocida 46572 turned out to be 24%.
In the assay with TNF-α (setting [2]), `CC[C@H]1OC(=O)[C@H](C)[C@@H](O)[C@H](C)[C@@H](O[C@@H]2O[C@H](C)C[C@H](N(C)S(=O)(=O)c3ccccc3)[C@H]2Oc2ccc(OC)c(OC)c2)[C@](C)(O)C[C@@H](C)CN[C@H](C)[C@@H](O)[C@]1(C)O` [Example A-8, N-((2S,3R,4S,6R)-3-(3,4-dimethoxyphenoxy)-2-(((2R,3S,4R,5R,8R,10R,11R,12S,13S,14R)-2-ethyl-3,4, 10, 13-tetrahydroxy-3,5,8,10,12,14-hexamethyl-15-oxo-1-oxa-6-azacyclopentadecan-11-yl)oxy)-6-methyltetrahydro-2H-pyran-4-yl)-N-methylbenzenesulfonamide] returned an IC50 of 40 µM. This molecule also came in with a minimal effective concentration with IL-1β (setting [3]) of 100 µM. Besides, in the assay with P. multocida 46572, the “% Survival” value was found to be 20%.
Consider `CCCNC[C@]1(O)[C@H](C)O[C@@H](O[C@H]2[C@H](C)[C@@H](O[C@@H]3O[C@H](C)C[C@H](N(C)S(=O)(=O)c4ccc(C(F)(F)F)cc4)[C@H]3O)[C@](C)(O)C[C@@H](C)CN[C@H](C)[C@@H](O)[C@](C)(O)[C@@H](CC)OC(=O)[C@@H]2C)C[C@@]1(C)OC` [Example B-14, N-((2S,3R,4S,6R)-2-(((2R,3S,4R,5R,8R,10R,11R,12S,13S,14R)-2-ethyl-3,4,10-trihydroxy-13-(((2R,4R,5S,6S)-5-hydroxy-4-methoxy-4,6-dimethyl-5-((propylamino)methyl)tetrahydro-2H-pyran-2-yl)oxy)-3,5,8,10,12,14-hexamethyl-15-oxo-1-oxa-6-azacyclopentadecan-11-yl)oxy)-3-hydroxy-6-methyltetrahydro-2H-pyran-4-yl)-N-methyl-4-(trifluoromethyl)benzenesulfonamide], for which the “% Survival” value in the assay with P. multocida 46572 turned out to be 16%.
Molecule `CCCNC[C@]1(O)[C@H](C)O[C@@H](O[C@H]2[C@H](C)[C@@H](O[C@@H]3O[C@H](C)C[C@H](N(C)S(=O)(=O)N(C)Cc4ccc(Cl)cc4)[C@H]3O)[C@](C)(O)C[C@@H](C)CN[C@H](C)[C@@H](O)[C@](C)(O)[C@@H](CC)OC(=O)[C@@H]2C)C[C@@]1(C)OC` [Example B-41] gave a minimal effective concentration with IL-1β (top concentration 250 μM) of 6 µM. Besides, the “% Survival” value in the assay with P. multocida 46572 stood at 52%.
In the assay on TNF-α (setting [4]), `CCCNC[C@]1(O)[C@H](C)O[C@@H](O[C@H]2[C@H](C)[C@@H](O[C@@H]3O[C@H](C)C[C@H](N(C)S(=O)(=O)Nc4ccccc4)[C@H]3O)[C@](C)(O)C[C@@H](C)CN[C@H](C)[C@@H](O)[C@](C)(O)[C@@H](CC)OC(=O)[C@@H]2C)C[C@@]1(C)OC` [Example B-48, (2R,3S,4R,5R,8R,10R,11R,12S,13S, 14R)-2-ethyl-3,4,10-trihydroxy-13-[(2R,4R,5S,6S)-5-hydroxy-4-methoxy-4,6-dimethyl-5-(propylaminomethyl)oxan-2-yl]oxy-11-[(2S,3R,4S,6R)-3-hydroxy-6-methyl-4-[methyl(phenylsulfamoyl)amino]oxan-2-yl]oxy-3,5,8,10,12,14-hexamethyl-15-oxo-1-oxa-6-azacyclopentadecane] showed an IC50 of 25 µM. Moreover, the minimal effective concentration in the assay on IL-1β (setting [5]) turned out to be 32 µM. Besides, the “% Survival” value in the assay with P. multocida 46572 stood at 33%.
For the molecule `CCCNC[C@]1(O)[C@H](C)O[C@@H](O[C@H]2[C@H](C)[C@@H](O[C@@H]3O[C@H](C)C[C@H](N(C)S(=O)(=O)c4ccc(Cl)cc4)[C@H]3O)[C@](C)(O)C[C@@H](C)CN[C@H](C)[C@@H](O)[C@](C)(O)[C@@H](CC)OC(=O)[C@@H]2C)C[C@@]1(C)OC` [Example B-60, 4-chloro-N-((2S,3R,4S,6R)-2-(((2R,3S,4R,5R,8R,10R,11R, 12S,13S, 14R)-2-ethyl-3,4,10-trihydroxy-13-(((2R,4R,5S,6S)-5-hydroxy-4-methoxy-4,6-dimethyl-5-((propylamino)methyl)tetrahydro-2H-pyran-2-yl)oxy)-3,5,8, 10, 12, 14-hexamethyl-15-oxo-1-oxa-6-azacyclopentadecan-11-yl)oxy)-3-hydroxy-6-methyltetrahydro-2H-pyran-4-yl)-N-methylbenzenesulfonamide], inhibition with TNF-α (setting [4]) was half-maximal at 5 µM (IC50). Also, in the assay with IL-1β (setting [5]), the minimal effective concentration was 13 µM. For the same molecule, the “% Survival” value in the assay on P. multocida 46572 is 37%.
In the assay with TNF-α (setting [2]), `CCCNC[C@]1(O)[C@H](C)O[C@@H](O[C@H]2[C@H](C)[C@@H](O[C@@H]3O[C@H](C)C[C@H](N(C)S(=O)(=O)N(C)c4ccc(C(F)(F)F)cc4)[C@H]3O)[C@](C)(O)C[C@@H](C)CN[C@H](C)[C@@H](O)[C@](C)(O)[C@@H](CC)OC(=O)[C@@H]2C)C[C@@]1(C)OC` [Example B-113, (2R,3S,4R,5R,8R,10R,11R,12S,13S,14R)-2-ethyl-3,4, 10-trihydroxy-13-[(2R,4R,5S,6S)-5-hydroxy-4-methoxy-4,6-dimethyl-5-(propylaminomethyl)oxan-2-yl]oxy-11-[(2S,3R,4S,6R)-3-hydroxy-6-methyl-4-[methyl-[methyl-[4-(trifluoromethyl)phenyl]sulfamoyl]amino]oxan-2-yl]oxy-3,5,8, 10, 12, 14-hexamethyl-1-oxa-6-azacyclopentadecan-15-one] came in with an IC50 of 7 µM. In the assay with P. multocida 46572, the “% Survival” value was determined as 59%.
Regarding `CCCNC[C@@]1(O)[C@@H](C)OC(O[C@H]2[C@H](C)[C@@H](O[C@@H]3O[C@H](C)C[C@H](N(C)S(=O)(=O)c4ccccc4)[C@H]3Oc3ccccn3)[C@](C)(O)C[C@@H](C)CN[C@H](C)[C@@H](O)[C@](C)(O)[C@@H](CC)OC(=O)[C@@H]2C)C[C@]1(C)OC` (stereo partly drawn) [Example B-130], the minimal effective concentration in the assay on IL-1β (top concentration 250 μM) was found to be 6 µM. Besides, the “% Survival” value with P. multocida 46572 is 42%.
In the case of “(2R,3S,4R,5R,8R,10R,11R, 12S, 13S, 14R)-2-ethyl-11-[(2R,3S,4R,6S)-4-[(3-fluorophenyl) sulfamoyl-methylamino]-3-hydroxy-6-methyloxan-2-yl]oxy-3,4, 10-trihydroxy-13-[(2R,4R,5S,6S)-5-hydroxy-4-methoxy-4,6-dimethyl-5-(piperidin-1-ylmethyl)-oxan-2-yl]oxy-3,5,8,10, 12,14-hexamethyl-15-oxo-1-oxa-6-azacyclopentadecane [Example C-24]”, the “MIC flag (*) for BRD pathogenic strains” value in assay [1] is recorded as “C-24* (MIC ≤64 μg/mL for at least one BRD pathogenic strain)”. Besides, the figures for the IC50 with TNF-α (top drug concentration 250 μM) and with IL-6 were 16 µM and 25 µM, respectively. For the same molecule, the minimal effective concentration with IL-1β (top concentration 250 μM) worked out at 3 µM.

For the origin of these results see patent publication US20250236616A1, “IMMUNOMODULATING AZALIDES” (Zoetis Services LLC, priority 2021, published 2025).
